In patent US9326513B2, “Fungicidal compositions” (Syngenta Participations AG, priority 2011, dated 2016):

Columns and labels:
Gaeumannomvces graminis = Gaeumannomvces graminis (take-all of cereals), PDB microtiter plate, visual after 48 hrs; assay type: cell-based; conditions: solo; for inhibition at 0.015625 ppm: rate 0.015625 ppm
Source text: In the following Tables ‘Activity (%)’ means the assessed experimental activity (% disease control in this test when compared to untreated control leaf disks under the same conditions, which show extensive disease development) and “P” is the expected value calculated (expected) activity according to the COLBY formula (see above). The column headed ‘S?’ indicates whether or not synergy was observed, with ‘y’ meaning that synergy was observed. Gaeumannomvces graminis (Take-all of Cereals) Mycelial fragments of the fungus from cryogenic storage were directly mixed into nutrient broth (PDB potato dextrose broth). After placing a (DMSO) solution of the test compounds into a microtiter plate (96-well format) the nutrient broth containing the fungal spores was added.

Sphaerotheca fuliginea = Sphaerotheca fuliginea (powdery mildew) on cucumber, preventive treatment; assay type: in vivo; conditions: solo, 2 days preventive, 10 days after application
Source text: In the following Tables 'Activity (%)' means the assessed experimental activity (% disease control in this test when compared to untreated control leaf disks under the same conditions, which show extensive disease development) and “P” is the expected value calculated (expected) activity according to the COLBY formula (see above). The column headed 'S?' indicates whether or not synergy was observed, with 'y' meaning that synergy was observed. Sphaerotheca fuliqinea (Powdery Mildew) on Cucumber, Preventive Treatment […] Cucumber plants with unfolded cotyledons were sprayed with a roomsprayer and 40 ml/4 plants spray volume with the test compounds, either solo or in […] shown in the table below. 2 days after application the plants were infested with spores of Sphaerotheca fuliginea.

Pyrenophora teres = Pyrenophora teres / barley / leaf disc preventative (net blotch); assay type: in vivo; conditions: foliar, compared to untreated control leaf disks, read-out: disease control
Source text: Pyrenophora teres/Barley/Leaf Disc Preventative (Net Blotch) Barley leaf segments cv. Hasso were placed on agar in a multiwell plate (24-well format) and sprayed with the formulated test compound diluted in water. The leaf segments were inoculated with a spore suspension of the fungus 2 days after application.

Pythium ultimum = Pythium ultimum (damping off), PDB microtiter plate, visual after 48 hrs; assay type: cell-based; conditions: Globisporangium ultimum, solo

Row | Structure (SMILES) | inhibition at 0.015625 ppm (Gaeumannomvces graminis) [%] | inhibition at 0.03125 ppm (Gaeumannomvces graminis; rate 0.03125 ppm) [%] | inhibition at 0.0625 ppm (Gaeumannomvces graminis; rate 0.0625 ppm) [%] | inhibition at 0.125 ppm (Gaeumannomvces graminis; rate 0.125 ppm) [%] | inhibition at 0.25 ppm (Gaeumannomvces graminis; rate 0.25 ppm) [%] | Activity (Sphaerotheca fuliginea; rate 0.2 ppm) [%] | Activity (Sphaerotheca fuliginea; rate 0.6 ppm) [%] | Activity (Sphaerotheca fuliginea; rate 2 ppm) [%] | pest or weed control at 200 ppm (Pyrenophora teres) [%] | inhibition at 0.00390625 ppm (Gaeumannomvces graminis; rate 0.00390625 ppm) [%] | inhibition at 0.0078125 ppm (Gaeumannomvces graminis; rate 0.0078125 ppm) [%] | inhibition at 0.0078125 ppm (Pythium ultimum; rate 0.0078125 ppm) [%] | inhibition at 0.015625 ppm (Pythium ultimum; rate 0.015625 ppm) [%] | inhibition at 0.03125 ppm (Pythium ultimum; rate 0.03125 ppm) [%] | inhibition at 0.0625 ppm (Pythium ultimum; rate 0.0625 ppm) [%]
1 | CCN(C)/C=N/c1cc(Br)c(OC(C)c2cc(F)cc(F)c2)nc1C (stereo not shown) [Q.113] | 0 | 0 | 0 | 0 | 0 | 0 | 0 | 0 | – | – | – | – | – | – | –
2 | CCN(C)/C=N/c1cc(Br)c(OC2Cc3ccccc3C2)nc1C [Q.062] | 0 | – | – | – | – | 0 | 0 | 7 | ≥ 50 | 0 | 0 | – | – | – | –
3 | CCN(C)/C=N/c1cc(Br)c(O[C@H]2CC[C@@H](C(C)C)CC2)nc1C [Q.135] | – | – | – | – | – | 0 | 0 | 0 | – | – | – | 0 | 0 | 0 | 0
